Measured values published in patent US9518977B2, “Microfluidic assay apparatus and methods of use” (University of Washington through its Center for …, priority 2012, dated 2016).
Entries after “also recorded” stand apart in the source; their conditions may differ.

System: GFP-labelled glioma cells in human GBM mouse xenograft slice
Test: Drug testing on human GBM xenograft slices in microfluidic apparatus
Type: cell-based
Settings: 1 mM TMZ in culture medium, 48 hours selective exposure, 400 μm-thick slice, epifluorescence and confocal imaging
Excerpt: Two hundred thousand (200,000) viable glioma cells labelled by lentiviral GFP expression were orthotopically injected in the brain of an immunodeficient mouse following proper protocols. After approximately four weeks of tumor growth, the mouse was sacrificed and the mouse brain was then transported in ice cold culture medium prior to slicing. A vibratome tissue slicer was used to produce 400 μm-thick slices from a GBM xenograft mouse brain (the tissue was submerged in oxygenated ACSF during the slicing process). Then the slices were quickly transferred onto the PTFE membrane well inserts with pre-warmed culture medium and placed in an incubator. These slices were cultured for at least 24 hours (recovery) before being used for drug testing.
To proceed with drug testing, the GBM slice was transferred from the culture membrane well insert to the microfluidic apparatus by cutting the PTFE membrane out from the well insert and then placing it onto the plurality of open microchannels of the apparatus. […] Then the wells corresponding to the determined drug delivery channels were replaced with drug solution (1 mM of TMZ in culture medium; TMZ was chosen due to its clinical relevance to GBM), and then the apparatus was connected to a syringe pump with the total flow rate of 300 μL per hour in an incubator to initiate the drug delivery. […]

With `Cn1nnc2c(C(N)=O)ncn2c1=O` [TMZ] the “cell death (loss of GFP-labelled glioma cells) at drug exposure regions” value was “selectivity of cell death in the TMZ region; also recorded: loss of GFP-labelled glioma cells”.
